US6355799B1, “Substituted benzene compounds, process for their preparation, and herbicidal and defoliant compositions containing them” (ISK Americas Incorporated, priority 1997, dated 2002)

Key:
Format in all cases: in vivo
[1] = system: redroot pigweed (Amaranthus retroflexus, AMARE); assay: Pre-emerge test, greenhouse herbicide activity screening; settings: rated 14 days after application, 0 = no damage, 100 = complete death
Method in brief: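 Compounds in acetone were track-sprayed at 187 l/ha, 15–1000 g ai/ha, onto sandy loam pots. Pre-emerge seeds were sown one day before spraying, with surface watering afterwards. Post-emerge plants were at the 2–3 leaf stage and sprayed with 0.25% v/v non-ionic surfactant. Injury was rated 0–100 at 14 days.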

[2] = system: field corn (Zea mays L., var. Dekalb 535, CORN); assay: Pre-emerge test, crop safety; settings: rated 14 days after application, 0 = no damage, 100 = complete death
Method in brief: (§1)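 Rating: 0–100 visual injury, 14 DAA. Application: acetone, 187 l/ha, 15–1000 g ai/ha, flat-fan track sprayer with nozzle 40–45 cm above soil or canopy. Post-emerge runs used 0.25% v/v surfactant on 2–3 leaf plants.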

[3] = system: upland rice (Oryza sp., var. Tebonnet, RICE); assay: Pre-emerge test, crop safety; settings: rated 14 days after application, 0 = no damage, 100 = complete death
Method in brief: as §1

[4] = system: velvetleaf (Abutilon theophrasti, ABUTH); assay: Post-emerge test, greenhouse herbicide activity screening; settings: post-emerge, 14 days after application, rating scale 0-100
Method in brief: (§2)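 Compounds in acetone were track-sprayed at 15–1000 g ai/ha: pre-emergence onto soil sown the previous day, then top-watered to incorporate and later bottom-watered; post-emergence onto 2–3 leaf plants with 0.25% v/v surfactant, bottom-watered only. Ratings on a 0–100 phytotoxicity scale were taken at day 14.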

[5] = system: common ragweed (Ambrosia artemisizfolia L., AMBEL); assay: as above; settings: post-emerge, 14 days after application, rating scale 0-100
Method in brief: as §2

[6] = system: sicklepod (Cassia obtusifolia, CASOB); assay: as above; settings: post-emerge, 14 days after application, rating scale 0-100
Method in brief: as §2

[7] = system: barnyardgrass (Echinochloa crus-galli, ECHCG); assay: as above; settings: post-emerge, 14 days after application, rating scale 0-100
Method in brief: as §2

[8] = system: lambsquarters (Chenopodium album, CHEAL); assay: as above; settings: post-emerge, 14 days after application, rating scale 0-100
Method in brief: as §2

[9] = system: ivyleaf morningglory (Ipomoea hederacea, IPOHE); assay: as above; settings: post-emerge, 14 days after application, rating scale 0-100
Method in brief: as §2

[10] = system: johnsongrass (Sorghum halepense, SORHA); assay: as above; settings: post-emerge, 14 days after application, rating scale 0-100
Method in brief: as §2

[11] = system: redroot pigweed (Amaranthus retroflexus, AMARE); assay: as above; settings: post-emerge, 14 days after application, rating scale 0-100
Method in brief: as §2

[12] = system: green foxtail (Setaria viridis, SETVI); assay: as above; settings: post-emerge, 14 days after application, rating scale 0-100
Method in brief: as §2

[13] = system: large crabgrass (Digitaria sanguinalis, DIGSA); assay: as above; settings: post-emerge, 14 days after application, rating scale 0-100
Method in brief: as §2

[14] = system: field corn (Zea mays L., var. Dekalb 535, CORN); assay: Post-emerge test, crop safety; settings: post-emerge, 14 days after application, rating scale 0-100
Method in brief: (§3)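 Herbicidal damage is scored 0 (none) to 100 (complete plant death) two weeks after a simulated field spray. Rates span 15–1000 g ai/ha, delivered in acetone at 187 l/ha. For post-emergence treatments, plants have 2–3 leaves and the spray carries 0.25% v/v non-ionic surfactant.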

[15] = system: upland rice (Oryza sp., var. Tebonnet, RICE); assay: Post-emerge test, crop safety; settings: post-emerge, 14 days after application, rating scale 0-100
Method in brief: as §3

[16] = system: velvetleaf (Abutilon theophrasti, ABUTH); assay: Pre-emerge test, greenhouse herbicide activity screening; settings: rated 14 days after application, 0 = no damage, 100 = complete death
Method in brief: as §3

[17] = system: common ragweed (Ambrosia artemisizfolia L., AMBEL); assay: as above; settings: rated 14 days after application, 0 = no damage, 100 = complete death
Method in brief: as §3

[18] = system: sicklepod (Cassia obtusifolia, CASOB); assay: as above; settings: rated 14 days after application, 0 = no damage, 100 = complete death
Method in brief: as §3

[19] = system: barnyardgrass (Echinochloa crus-galli, ECHCG); assay: as above; settings: rated 14 days after application, 0 = no damage, 100 = complete death
Method in brief: as §3

[20] = system: lambsquarters (Chenopodium album, CHEAL); assay: as above; settings: rated 14 days after application, 0 = no damage, 100 = complete death
Method in brief: as §3

[21] = system: ivyleaf morningglory (Ipomoea hederacea, IPOHE); assay: as above; settings: rated 14 days after application, 0 = no damage, 100 = complete death
Method in brief: as §3

[22] = system: johnsongrass (Sorghum halepense, SORHA); assay: as above; settings: rated 14 days after application, 0 = no damage, 100 = complete death
Method in brief: as §3

[23] = system: green foxtail (Setaria viridis, SETVI); assay: as above; settings: rated 14 days after application, 0 = no damage, 100 = complete death
Method in brief: as §3

[24] = system: large crabgrass (Digitaria sanguinalis, DIGSA); assay: as above; settings: rated 14 days after application, 0 = no damage, 100 = complete death
Method in brief: as §3

## COc1c(Cl)cc(F)c(-n2c(=O)cc(C(F)(F)F)n(C)c2=O)c1N(C(=O)c1ccc(Cl)nc1)C(=O)c1ccc(Cl)nc1 [2-100]
[1]; 63 g ai/ha
  Pre-emerge Herbicidal Activity, phytotoxicity rating (0-100), AMARE: 100
[1]; 250 g ai/ha
  Pre-emerge Herbicidal Activity, phytotoxicity rating (0-100), AMARE: 100
[2]; 63 g ai/ha
  Pre-emerge phytotoxicity rating (0-100), crop damage, CORN: 45
[2]; 250 g ai/ha
  Pre-emerge phytotoxicity rating (0-100), crop damage, CORN: 95
[3]; 63 g ai/ha
  Pre-emerge phytotoxicity rating (0-100), crop damage, RICE: 75
[3]; 250 g ai/ha
  Pre-emerge phytotoxicity rating (0-100), crop damage, RICE: 90
[4]; 63 g ai/ha
  phytotoxicity rating ABUTH: 100
[4]; 250 g ai/ha
  phytotoxicity rating ABUTH: 100
[5]; 63 g ai/ha
  phytotoxicity rating AMBEL: 70
[5]; 250 g ai/ha
  phytotoxicity rating AMBEL: 90
[6]; 63 g ai/ha
  phytotoxicity rating CASOB: 70
[6]; 250 g ai/ha
  phytotoxicity rating CASOB: 60
[7]; 63 g ai/ha
  phytotoxicity rating ECHCG: 0
[7]; 250 g ai/ha
  phytotoxicity rating ECHCG: 30
[8]; 63 g ai/ha
  phytotoxicity rating CHEAL: 80
[8]; 250 g ai/ha
  phytotoxicity rating CHEAL: 80
[9]; 63 g ai/ha
  phytotoxicity rating IPOHE: 100
[9]; 250 g ai/ha
  phytotoxicity rating IPOHE: 100
[10]; 63 g ai/ha
  phytotoxicity rating SORHA: 0
[10]; 250 g ai/ha
  phytotoxicity rating SORHA: 60
[11]; 63 g ai/ha
  phytotoxicity rating AMARE: 80
[11]; 250 g ai/ha
  phytotoxicity rating AMARE: 100
[12]; 63 g ai/ha
  phytotoxicity rating SETVI: 60
[12]; 250 g ai/ha
  phytotoxicity rating SETVI: 70
[13]; 63 g ai/ha
  phytotoxicity rating DIGSA: 0
[13]; 250 g ai/ha
  phytotoxicity rating DIGSA: 20
[14]; 63 g ai/ha
  phytotoxicity rating CORN: 15
[14]; 250 g ai/ha
  phytotoxicity rating CORN: 80
[15]; 63 g ai/ha
  phytotoxicity rating RICE: 45
[15]; 250 g ai/ha
  phytotoxicity rating RICE: 70
[16]; 63 g ai/ha
  Pre-emerge Herbicidal Activity, phytotoxicity rating (0-100), ABUTH: 100
[16]; 250 g ai/ha
  Pre-emerge Herbicidal Activity, phytotoxicity rating (0-100), ABUTH: 100
[17]; 63 g ai/ha
  Pre-emerge Herbicidal Activity, phytotoxicity rating (0-100), AMBEL: 90
[17]; 250 g ai/ha
  Pre-emerge Herbicidal Activity, phytotoxicity rating (0-100), AMBEL: 100
[18]; 63 g ai/ha
  Pre-emerge Herbicidal Activity, phytotoxicity rating (0-100), CASOB: 30
[18]; 250 g ai/ha
  Pre-emerge Herbicidal Activity, phytotoxicity rating (0-100), CASOB: 100
[19]; 63 g ai/ha
  Pre-emerge Herbicidal Activity, phytotoxicity rating (0-100), ECHCG: 70
[19]; 250 g ai/ha
  Pre-emerge Herbicidal Activity, phytotoxicity rating (0-100), ECHCG: 90
[20]; 63 g ai/ha
  Pre-emerge Herbicidal Activity, phytotoxicity rating (0-100), CHEAL: 100
[20]; 250 g ai/ha
  Pre-emerge Herbicidal Activity, phytotoxicity rating (0-100), CHEAL: 100
[21]; 63 g ai/ha
  Pre-emerge Herbicidal Activity, phytotoxicity rating (0-100), IPOHE: 100
[21]; 250 g ai/ha
  Pre-emerge Herbicidal Activity, phytotoxicity rating (0-100), IPOHE: 100
[22]; 63 g ai/ha
  Pre-emerge Herbicidal Activity, phytotoxicity rating (0-100), SORHA: 85
[22]; 250 g ai/ha
  Pre-emerge Herbicidal Activity, phytotoxicity rating (0-100), SORHA: 100
[23]; 63 g ai/ha
  Pre-emerge Herbicidal Activity, phytotoxicity rating (0-100), SETVI: 100
[23]; 250 g ai/ha
  Pre-emerge Herbicidal Activity, phytotoxicity rating (0-100), SETVI: 100
[24]; 63 g ai/ha
  Pre-emerge Herbicidal Activity, phytotoxicity rating (0-100), DIGSA: 90
[24]; 250 g ai/ha
  Pre-emerge Herbicidal Activity, phytotoxicity rating (0-100), DIGSA: 100
